Our source for the IC50 and time to progression values is patent publication US9174935B2, “Transition metal complexes of bis[thiohydrazide amide] compounds” (Synta Pharmaceuticals Corp., priority 2008, dated 2015).

The subject of one experiment is M14 melanoma cells. Briefly: Cytotoxicity in confluent M14 cells, cell viability by CCK8 assay. The settings on record: Homo sapiens, M14, 48 h. It counts as cell-based. The method, then:
M14 melanoma cells were seeded at 50,000 cells per well of 96-well plate in 100 μl of Dulbecco's minimum essential medium (DMEM) supplemented with 10% fetal bovine serum. Cells were cultured at 37° C. under 5% CO2-95% air. After 16 hours of incubation, the test compound was added to the cell culture. The compound was first diluted in 100% dimethyl sulfoxide (DMSO) at 400-fold of final concentrations actually used in the assay. The DMSO solution was next diluted 20 fold with the culture medium, and then finally added to the assay wells at another 20-fold dilution. The assay medium included the test compound with concentrations as indicated with 0.25% DMSO. Cell viability was measured with a CCK8 assay (as described in the Technical Manual for Cell Counting Kit-8, Product #CK04-11, CK04-13 and CK04-20, Dojindo Molecular Technologies, Inc. MD; Tantular, I. S. et al. Tropical Medicine and International Health, 8(6), 569-574, 2003) in the last 15 min after a 48 h incubation with the test compound. Each bar of the figure expresses average percent inhibition against vehicle (0.25% DMSO) control (n=4). Error bars indicate standard deviation.

For experiment [1], the system named is stage IV metastatic melanoma. The settings on record: in combination with paclitaxel, relative to patients treated with paclitaxel alone; cited from earlier work.

Turning to `CN(NC(=O)CC(=O)NN(C)C(=S)c1ccccc1)C(=S)c1ccccc1` [A], the IC50 in the experiment on M14 melanoma cells was more than 12.5 µM.

Turning to `CN(NC(=O)CC(=O)NN(C)C(=S)c1ccccc1)C(=S)c1ccccc1` [N-malonyl-bis(N′-methyl-N′-thiobenzoylhydrazide)], the time to progression entry in experiment [1] is given as “increase the time to progression”.
